Laboratory results from patent US5656726A, “Peptide inhibitors of urokinase receptor activity” (Chiron Corporation, priority 1995, dated 1997).
Peptide text beside a SMILES is read from it.

Molecular target: T1, recombinant human urokinase receptor (truncated, soluble; suPAR) (Homo sapiens, UniProt Q03405)
T1 construct: expressed as a truncated, soluble molecule as described previously for mouse L-cells (Masucci et al., J Biol Chem (1991) 266:8655); made in house
Assay: 125I-ATF competition binding on immobilized soluble recombinant human urokinase receptor
Conditions: synthesized peptide; assay performed at 100 pM ATF, 0.3 μg/mL suPAR in 200 μL (starred values); read-out: Affinity

T1 sequence (Q03405 23-299 limits assumed): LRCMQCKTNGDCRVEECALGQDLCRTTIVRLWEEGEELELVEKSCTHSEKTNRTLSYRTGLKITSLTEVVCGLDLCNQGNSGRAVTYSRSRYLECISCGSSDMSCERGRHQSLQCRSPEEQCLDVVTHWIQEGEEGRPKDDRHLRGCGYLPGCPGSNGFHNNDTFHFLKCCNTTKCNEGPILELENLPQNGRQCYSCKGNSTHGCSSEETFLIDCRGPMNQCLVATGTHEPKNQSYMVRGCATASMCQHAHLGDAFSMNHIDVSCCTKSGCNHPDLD

Structure (SMILES) | Kd [µM]
CC[C@H](C)[C@H](NC(=O)[C@H](CCC(=O)O)NC(=O)[C@H](C)N)C(=O)N[C@@H](CC(C)C)C(=O)N[C@@H](CC(N)=O)C(=O)N[C@@H](Cc1ccccc1)C(=O)N1CCC[C@H]1C(=O)N[C@@H](CC(C)C)C(=O)N[C@@H](Cc1c[nH]c2ccccc12)C(=O)N[C@@H](Cc1c[nH]cn1)C(=O)N[C@@H](CCC(=O)O)C(=O)N1CCC[C@H]1C(=O)N[C@@H](CC(C)C)C(=O)N[C@@H](Cc1c[nH]c2ccccc12)C(=O)N[C@@H](CO)C(=O)N[C@H](C(=O)N[C@@H](CCC(=O)O)C(N)=O)[C@@H](C)O (H-AEILNFPLWHEPLWSTE-NH2) | 15
CC(C)C[C@H](NC(=O)[C@H](CO)NC(=O)[C@H](CO)NC(=O)[C@H](Cc1ccc(O)cc1)NC(=O)[C@@H](NC(=O)[C@H](Cc1c[nH]cn1)NC(=O)[C@H](CCC(=O)O)NC(=O)[C@H](C)N)[C@@H](C)O)C(=O)N[C@@H](Cc1c[nH]c2ccccc12)C(=O)N[C@@H](CC(=O)O)C(=O)N[C@H](C(=O)N[C@@H](Cc1ccc(O)cc1)C(=O)N[C@@H](CO)C(=O)N1CCC[C@H]1C(=O)N[C@@H](CC(C)C)C(=O)N[C@@H](C)C(=O)N[C@@H](Cc1ccccc1)C(N)=O)[C@@H](C)O (H-AEHTYSSLWDTYSPLAF-NH2) | 0.35
CC[C@H](C)[C@H](NC(=O)[C@H](CCC(=O)O)NC(=O)[C@H](C)N)C(=O)N[C@@H](CCCCN)C(=O)N[C@H](C(=O)N[C@@H](CC(=O)O)C(=O)N[C@@H](CCC(=O)O)C(=O)N[C@@H](CCCCN)C(=O)N[C@@H](CCSC)C(=O)NCC(=O)N[C@@H](CC(C)C)C(=O)N[C@@H](Cc1c[nH]c2ccccc12)C(=O)N[C@@H](CC(=O)O)C(=O)N[C@@H](CC(C)C)C(=O)N[C@@H](Cc1ccc(O)cc1)C(=O)N[C@@H](CO)C(=O)N[C@@H](CCSC)C(N)=O)[C@@H](C)O (H-AEIKTDEKMGLWDLYSM-NH2) | 25
CSCC[C@H](NC(=O)[C@H](Cc1c[nH]c2ccccc12)NC(=O)[C@H](CC(C)C)NC(=O)[C@H](CC(=O)O)NC(=O)[C@H](CC(C)C)NC(=O)[C@H](CCC(=O)O)NC(=O)[C@H](C)N)C(=O)N[C@@H](CCCNC(=N)N)C(=O)N[C@@H](Cc1c[nH]cn1)C(=O)N[C@@H](Cc1ccc(O)cc1)C(=O)N1CCC[C@H]1C(=O)N[C@@H](CC(C)C)C(=O)N[C@@H](CO)C(=O)N[C@@H](Cc1ccccc1)C(=O)N[C@@H](CO)C(=O)N[C@@H](CC(N)=O)C(=O)N[C@@H](CCCNC(=N)N)C(N)=O (H-AELDLWMRHYPLSFSNR-NH2) | 0.8
CC[C@H](C)[C@H](NC(=O)[C@H](Cc1c[nH]c2ccccc12)NC(=O)[C@H](CC(C)C)NC(=O)[C@H](CC(=O)O)NC(=O)[C@H](C)NC(=O)[C@H](CCC(=O)O)NC(=O)[C@H](CO)NC(=O)[C@H](CC(C)C)NC(=O)[C@H](CCC(=O)O)NC(=O)[C@H](C)N)C(=O)N[C@H](C(=O)N[C@@H](Cc1c[nH]c2ccccc12)C(=O)N[C@@H](Cc1ccccc1)C(=O)NCC(=O)N[C@@H](CCSC)C(=O)NCC(=O)N[C@@H](CO)C(N)=O)[C@@H](C)O (H-AELSEADLWITWFGMGS-NH2) | 20
CC[C@H](C)[C@H](NC(=O)[C@H](CCC(=O)O)NC(=O)[C@H](C)N)C(=O)N[C@@H](CO)C(=O)N[C@@H](Cc1ccccc1)C(=O)N[C@@H](CO)C(=O)N[C@@H](CCC(=O)O)C(=O)N[C@@H](CC(C)C)C(=O)N[C@@H](CCSC)C(=O)N[C@@H](Cc1c[nH]c2ccccc12)C(=O)N[C@@H](CC(C)C)C(=O)N[C@@H](CCCNC(=N)N)C(=O)N[C@@H](CO)C(=O)N[C@H](C(=O)N1CCC[C@H]1C(=O)N[C@@H](C)C(=O)N[C@@H](Cc1ccccc1)C(N)=O)[C@@H](C)O (H-AEISFSELMWLRSTPAF-NH2) | 6

Same assay, conditions: synthesized peptide; corrected to 100 pM ATF, 0.3 μg/mL suPAR conditions, corrections about 3 × from previous assay conditions; read-out: Affinity

Structure (SMILES) | Kd [µM]
CC[C@H](C)[C@H](NC(=O)[C@H](CCCNC(=N)N)NC(=O)[C@H](Cc1c[nH]c2ccccc12)NC(=O)[C@H](CC(C)C)NC(=O)[C@H](CO)NC(=O)[C@H](CO)NC(=O)[C@H](CCC(=O)O)NC(=O)[C@H](C)N)C(=O)N[C@@H](Cc1ccccc1)C(=O)N[C@@H](CO)C(=O)N1CCC[C@H]1C(=O)N[C@@H](CO)C(=O)N[C@@H](C)C(=O)N[C@@H](CC(C)C)C(=O)N[C@@H](CCSC)C(=O)N[C@@H](CCSC)C(=O)N[C@@H](CO)C(N)=O (H-AESSLWRIFSPSALMMS-NH2) | 7
CC(C)C[C@H](NC(=O)[C@H](CCC(=O)O)NC(=O)[C@H](C)N)C(=O)N1CCC[C@H]1C(=O)N[C@@H](CCCNC(=N)N)C(=O)N[C@H](C(=O)N[C@@H](CC(N)=O)C(=O)N1CCC[C@H]1C(=O)N[C@H](C(=O)N[C@H](C(=O)N[C@@H](C)C(=O)N[C@H](C(=O)N[C@@H](CCCCN)C(=O)N[C@@H](CC(N)=O)C(=O)N1CCC[C@H]1C(=O)N[C@@H](CO)C(=O)N[C@@H](Cc1ccccc1)C(N)=O)C(C)C)[C@@H](C)O)C(C)C)[C@@H](C)O (H-AELPRTNPVTAVKNPSF-NH2) | > 50
CC(C)C[C@H](NC(=O)CNC(=O)[C@@H]1CCCN1C(=O)[C@H](CC(N)=O)NC(=O)[C@H](Cc1ccccc1)NC(=O)[C@H](Cc1ccccc1)NC(=O)[C@H](Cc1ccccc1)NC(=O)[C@H](CO)NC(=O)[C@H](Cc1c[nH]c2ccccc12)NC(=O)[C@H](CC(N)=O)NC(=O)[C@H](CC(C)C)NC(=O)[C@H](CC(C)C)NC(=O)[C@H](C)NC(=O)[C@@H]1CCCN1C(=O)[C@H](CCC(=O)O)NC(=O)[C@H](C)N)C(=O)N[C@@H](Cc1c[nH]cn1)C(N)=O (H-AEPALLNWSFFFNPGLH-NH2) | 3
CC(C)C[C@H](NC(=O)[C@H](CCCNC(=N)N)NC(=O)[C@H](CC(C)C)NC(=O)[C@@H]1CCCN1C(=O)[C@H](Cc1ccccc1)NC(=O)[C@H](CCC(N)=O)NC(=O)[C@H](Cc1ccc(O)cc1)NC(=O)[C@H](CC(C)C)NC(=O)[C@H](CCC(N)=O)NC(=O)[C@H](Cc1c[nH]c2ccccc12)NC(=O)[C@H](CC(C)C)NC(=O)[C@@H](NC(=O)[C@@H]1CCCN1C(=O)[C@H](CCC(=O)O)NC(=O)[C@H](C)N)[C@@H](C)O)C(=O)N[C@@H](CO)C(=O)NCC(N)=O (H-AEPTLWQLYQFPLRLSG-NH2) | 5
CSCC[C@H](NC(=O)[C@@H](NC(=O)[C@H](CC(N)=O)NC(=O)[C@H](CO)NC(=O)[C@H](CC(C)C)NC(=O)[C@H](Cc1ccccc1)NC(=O)[C@H](Cc1c[nH]c2ccccc12)NC(=O)[C@H](C)NC(=O)[C@H](CCC(=O)O)NC(=O)[C@H](C)N)[C@@H](C)O)C(=O)N[C@@H](CCCCN)C(=O)N[C@@H](C)C(=O)N[C@@H](CC(C)C)C(=O)N[C@@H](CO)C(=O)N[C@@H](C)C(=O)N[C@@H](CCCNC(=N)N)C(=O)N[C@@H](CC(C)C)C(N)=O (H-AEAWFLSNTMKALSARL-NH2) | 4
CSCC[C@H](NC(=O)[C@H](C)NC(=O)[C@H](CC(C)C)NC(=O)[C@@H]1CCCN1C(=O)[C@@H]1CCCN1C(=O)[C@H](CC(C)C)NC(=O)[C@H](CO)NC(=O)[C@H](Cc1ccc(O)cc1)NC(=O)[C@H](CC(C)C)NC(=O)[C@H](CO)NC(=O)[C@H](Cc1c[nH]c2ccccc12)NC(=O)[C@H](CC(C)C)NC(=O)[C@H](CC(=O)O)NC(=O)[C@H](CC(C)C)NC(=O)[C@@H]1CCCN1C(=O)[C@H](CCC(=O)O)NC(=O)[C@H](C)N)C(N)=O (H-AEPLDLWSLYSLPPLAM-NH2) | 5
CC(C)C[C@H](NC(=O)[C@H](CCCCN)NC(=O)[C@H](CO)NC(=O)[C@H](Cc1ccc(O)cc1)NC(=O)[C@H](CCC(N)=O)NC(=O)[C@@H](NC(=O)[C@H](CO)NC(=O)[C@H](CCC(=O)O)NC(=O)[C@H](C)N)C(C)C)C(=O)N[C@@H](Cc1c[nH]c2ccccc12)C(=O)N[C@@H](CCCCN)C(=O)N1CCC[C@H]1C(=O)N[C@@H](CC(N)=O)C(=O)N[C@H](C(=O)N[C@H](C(=O)N[C@@H](CC(C)C)C(=O)N[C@@H](C)C(N)=O)[C@@H](C)O)[C@@H](C)O (H-AESVQYSKLWKPNTTLA-NH2) | > 50
